System: NOMO1
Experiment: cell viability relative to DMSO control; higher = less cytotoxic
Conditions: 48 h
How it was run: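 NOMO1 or SEM cells were plated at 500 cells/well and P12-Ichikawa cells at 1000 cells/well in 1536-well plates (5 μl), after each leukemia line had been adapted for at least four passages in each medium. Pin dosing delivered library compounds in DMSO at 11 threefold concentrations, 47 μM to 0.79 nM. CellTiter-Glo One luminescence was read after 48 h at 37°C. Viability is reported as a per-plate percentage of DMSO wells, with cell-free wells as background.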

[1] = HPLM + 10% dialyzed FBS, 0.000781 µM
[2] = HPLM + 10% dialyzed FBS, 0.00234 µM
[3] = HPLM + 10% dialyzed FBS, 0.00702 µM
[4] = HPLM + 10% dialyzed FBS, 0.0211 µM
[5] = HPLM + 10% dialyzed FBS, 0.0632 µM
[6] = HPLM + 10% dialyzed FBS, 0.19 µM
[7] = HPLM + 10% dialyzed FBS, 0.569 µM
[8] = HPLM + 10% dialyzed FBS, 1.71 µM
[9] = HPLM + 10% dialyzed FBS, 5.12 µM
[10] = HPLM + 10% dialyzed FBS, 15.4 µM
[11] = HPLM + 10% dialyzed FBS, 46.1 µM
[12] = RPMI 5 mM glucose + 10% FBS, 0.000781 µM
[13] = RPMI 5 mM glucose + 10% FBS, 0.00234 µM
[14] = RPMI 5 mM glucose + 10% FBS, 0.00702 µM
[15] = RPMI 5 mM glucose + 10% FBS, 0.0211 µM
[16] = RPMI 5 mM glucose + 10% FBS, 0.0632 µM
[17] = RPMI 5 mM glucose + 10% FBS, 0.19 µM
[18] = RPMI 5 mM glucose + 10% FBS, 0.569 µM
[19] = RPMI 5 mM glucose + 10% FBS, 1.71 µM
[20] = RPMI 5 mM glucose + 10% FBS, 5.12 µM
[21] = RPMI 5 mM glucose + 10% FBS, 15.4 µM
[22] = RPMI 5 mM glucose + 10% FBS, 46.1 µM
[23] = RPMI 5 mM glucose + 10% dialyzed FBS, 0.000781 µM
[24] = RPMI 5 mM glucose + 10% dialyzed FBS, 0.00234 µM
[25] = RPMI 5 mM glucose + 10% dialyzed FBS, 0.00702 µM
[26] = RPMI 5 mM glucose + 10% dialyzed FBS, 0.0211 µM
[27] = RPMI 5 mM glucose + 10% dialyzed FBS, 0.0632 µM
[28] = RPMI 5 mM glucose + 10% dialyzed FBS, 0.19 µM
[29] = RPMI 5 mM glucose + 10% dialyzed FBS, 0.569 µM
[30] = RPMI 5 mM glucose + 10% dialyzed FBS, 1.71 µM
[31] = RPMI 5 mM glucose + 10% dialyzed FBS, 5.12 µM
[32] = RPMI 5 mM glucose + 10% dialyzed FBS, 15.4 µM
[33] = RPMI 5 mM glucose + 10% dialyzed FBS, 46.1 µM

SMILES | cell viability [1] | cell viability [2] | cell viability [3] | cell viability [4] | cell viability [5] | cell viability [6] | cell viability [7] | cell viability [8] | cell viability [9] | cell viability [10] | cell viability [11] | cell viability [12] | cell viability [13] | cell viability [14] | cell viability [15] | cell viability [16] | cell viability [17] | cell viability [18] | cell viability [19] | cell viability [20] | cell viability [21] | cell viability [22] | cell viability [23] | cell viability [24] | cell viability [25] | cell viability [26] | cell viability [27] | cell viability [28] | cell viability [29] | cell viability [30] | cell viability [31] | cell viability [32] | cell viability [33]
CCCCCNC(=N)N/N=C/c1c[nH]c2ccc(OC)cc12 | 123% | 121% | 134% | 132% | 137% | 135% | 147% | 137% | 132% | 71.7% | 48.8% | 122% | 122% | 142% | 131% | 145% | 155% | 141% | 129% | 134% | 93.4% | 26.7% | – | – | – | – | – | – | – | – | – | – | –
NC1=NC(=O)N2CC12 (stereo not drawn) | 82% | 94.5% | 104% | 102% | 107% | 99.3% | 104% | 73.9% | 43.5% | 4.8% | 4.55% | 87.7% | 94.5% | 94.2% | 87.8% | 92.2% | 90.1% | 85.3% | 82.7% | 56.2% | 4.92% | 4.24% | 88.3% | 76.1% | 87.8% | 93.4% | 104% | 101% | 106% | 64.7% | 55.9% | 3.18% | 4.25%
Cc1ccc(C(=O)Nc2cccc(C(F)(F)F)c2)cc1Nc1nc(-c2cccnc2)nc2c1cnn2C | 87.4% | 80.6% | 97.4% | 97.6% | 88.4% | 104% | 74% | 56.5% | 71.2% | 67.8% | 78% | 83.5% | 84.8% | 94.5% | 77.4% | 85.1% | 87.4% | 77.6% | 84.9% | 87.7% | 73.4% | 76.4% | 84.8% | 86.2% | 87.6% | 87.2% | 90.7% | 89.1% | 83.7% | 77.4% | 93.8% | 77.6% | 85.3%
C=CC(=O)Nc1cc2c(Nc3ccc(F)c(Cl)c3)ncnc2cc1C#CC(C)(C)N1CCN(C)CC1 | 112% | 109% | 112% | 89.9% | 92% | 108% | 117% | 89.2% | 55.3% | 6.12% | 6.26% | 95.3% | 93% | 91.7% | 95.4% | 101% | 93.5% | 101% | 95% | 94.6% | 7.56% | 12.7% | 99.2% | 101% | 107% | 95.3% | 86.6% | 103% | 101% | 106% | 52.7% | 8.43% | 5.07%
C[S+](=O)([O-])Oc1ccc2c(NC(N)=O)c(C(=O)c3ccc(Cl)cc3Cl)oc2c1 | 115% | 103% | 114% | 113% | 140% | 139% | 127% | 128% | 105% | 100% | 42.7% | 105% | 111% | 104% | 115% | 120% | 119% | 125% | 117% | 115% | 106% | 50.3% | 127% | 111% | 122% | 126% | 119% | 116% | 115% | 128% | 135% | 105% | 76.8%
COc1ccc(CCC(=O)c2c(O)cc(O[C@@H]3O[C@H](CO)[C@@H](O)[C@H](O)[C@H]3O[C@@H]3O[C@@H](C)[C@H](O)[C@@H](O)[C@H]3O)cc2O)cc1O | 105% | 138% | 124% | 122% | 120% | 124% | 117% | 102% | 91.2% | 36.1% | 42.7% | 118% | 140% | 114% | 123% | 119% | 119% | 111% | 107% | 114% | 45.2% | 20.7% | 118% | 121% | 119% | 119% | 135% | 116% | 117% | 113% | 110% | 40.2% | 34.4%
C[C@]12CCC3c4ccc(O)cc4CCC3C1CCC2=O (stereo partly drawn) | 102% | 102% | 106% | 103% | 107% | 91.9% | 86.2% | 81.6% | 93% | 78.2% | 79.9% | 92.2% | 91.7% | 92.3% | 85.7% | 87.7% | 88.2% | 92.4% | 90.8% | 96.1% | 76% | 79.6% | 82.1% | 90.5% | 91.7% | 92.8% | 96.4% | 86.5% | 86.1% | 84.4% | 89% | 88.6% | 81.1%
COc1cc(C(=O)NC2CCN(C)CC2)ccc1Nc1ncc2c(n1)N(C1CCCC1)CCC(=O)N2C(C)C | 103% | 121% | 110% | 122% | 118% | 112% | 115% | 113% | 115% | 58.3% | 9.06% | 99.3% | 105% | 101% | 108% | 102% | 118% | 102% | 107% | 119% | 75.7% | 15.2% | 92.7% | 113% | 100% | 110% | 100% | 106% | 104% | 117% | 109% | 105% | 20.6%

Source: the supplement of paper PMC11451515
